Source: ChEMBL document CHEMBL5608244, “Preclinical Evaluation of Dihydropyrazole-Cored Positron Emission Tomography (PET) Ligands for Imaging of Receptor-Interacting Serine/Threonine Protein Kinase 1 (RIPK1) in the Brain” (J Med Chem, 2024)

How the values were obtained:
[1] = Biodistribution in ICR mouse assessed as decrease in drug accumulation in small intestine at 0.74 MBq, iv pretreated with GSK'547 followed by compound administration measured after 10 mins by automatic gamma counter analysis; assay type: ADME, organism-based; parameters: scale not given: the % may be the effect or the level left; settings: in vivo
[2] = Biodistribution in ICR mouse lung at 0.74 MBq, iv measured after 2 mins by automatic gamma counter analysis; assay type: ADME, organism-based; settings: in vivo
[3] = Drug metabolism in mouse plasma assessed as polar radiometabolites accumulation at 13.5 MBq, iv measured after 30 mins by HPLC analysis; assay type: ADME, organism-based; settings: 0.5 h
[4] = Biodistribution in ICR mouse blood at 0.74 MBq, iv measured after 2 mins by automatic gamma counter analysis; assay type: ADME, organism-based; settings: in vivo
[5] = Biodistribution in ICR mouse heart at 0.74 MBq, iv measured after 2 mins by automatic gamma counter analysis; assay type: ADME, organism-based; settings: in vivo
[6] = Biodistribution in ICR mouse small intestine at 0.74 MBq, iv measured after 30 mins by automatic gamma counter analysis; assay type: ADME, organism-based; settings: in vivo, 0.5 h
[7] = Biodistribution in ICR mouse assessed as decrease in drug accumulation in bone with marrow at 0.74 MBq, iv pretreated with GSK'547 followed by compound administration measured after 10 mins by automatic gamma counter analysis; assay type: ADME, organism-based; parameters: scale not given: the % may be the effect or the level left; settings: in vivo
[8] = Biodistribution in ICR mouse small intestine at 0.74 MBq, iv measured after 2 mins by automatic gamma counter analysis; assay type: ADME, organism-based; settings: in vivo
[9] = Drug metabolism in mouse plasma assessed as parent compound remaining at 13.5 MBq, iv measured after 30 mins by HPLC analysis; assay type: ADME, organism-based; settings: read-out: Activity
[10] = Biodistribution in ICR mouse pancreas at 0.74 MBq, iv measured after 10 mins by automatic gamma counter analysis; assay type: ADME, organism-based; settings: in vivo
[11] = Biodistribution in ICR mouse spleen at 0.74 MBq, iv measured after 2 mins by automatic gamma counter analysis; assay type: ADME, organism-based; settings: in vivo
[12] = Biodistribution in ICR mouse blood at 0.74 MBq, iv measured after 60 mins by automatic gamma counter analysis; assay type: ADME, organism-based; settings: in vivo, 1 h
[13] = Retention time of the compound by HPLC method; assay type: physicochemical
[14] = Biodistribution in ICR mouse brain at 0.74 MBq, iv measured after 10 mins by automatic gamma counter analysis; assay type: ADME, organism-based; settings: in vivo
[15] = Biodistribution in ICR mouse muscle at 0.74 MBq, iv measured after 10 mins by automatic gamma counter analysis; assay type: ADME, organism-based, Muscle tissue; settings: in vivo
[16] = Drug uptake in thalamus of ICR mouse brain at 0.5 to 10 uM incubated for 30 mins by Phosphor Imager analysis; assay type: ADME, tissue-based; settings: 0.5 h, dose 0.5-10 µM
[17] = Biodistribution in ICR mouse stomach at 0.74 MBq, iv measured after 2 mins by automatic gamma counter analysis; assay type: ADME, organism-based; settings: in vivo
[18] = Drug metabolism in mouse brain assessed as parent compound remaining at 13.5 MBq, iv measured after 30 mins by HPLC analysis; assay type: ADME, organism-based; settings: read-out: Activity
[19] = Biodistribution in ICR mouse muscle at 0.74 MBq, iv measured after 2 mins by automatic gamma counter analysis; assay type: ADME, organism-based, Muscle tissue; settings: in vivo
[20] = Biodistribution in ICR mouse spleen at 0.74 MBq, iv measured after 30 mins by automatic gamma counter analysis; assay type: ADME, organism-based; settings: in vivo, 0.5 h
[21] = Biodistribution in ICR mouse kidneys at 0.74 MBq, iv measured after 2 mins by automatic gamma counter analysis; assay type: ADME, organism-based, Kidney; settings: in vivo
[22] = Biodistribution in ICR mouse assessed as drug accumulation in bone without marrow at 0.74 MBq, iv pretreated with 1-(5-(3-fluorophenyl)-4,5-dihydro-1H-pyrazol-1-yl)-2,2-dimethylpropan-1-one followed by compound administration measured after 10 mins by automatic gamma counter analysis; assay type: ADME, organism-based; settings: in vivo
[23] = Biodistribution in ICR mouse stomach at 0.74 MBq, iv measured after 60 mins by automatic gamma counter analysis; assay type: ADME, organism-based; settings: in vivo, 1 h
[24] = Biodistribution in ICR mouse assessed as drug accumulation in bone without marrow at 0.74 MBq, iv pretreated with GSK'547 followed by compound administration measured after 10 mins by automatic gamma counter analysis; assay type: ADME, organism-based; settings: in vivo
[25] = Biodistribution in ICR mouse assessed as decrease in drug accumulation in bone with marrow at 0.74 MBq, iv pretreated with 1-(5-(3-fluorophenyl)-4,5-dihydro-1H-pyrazol-1-yl)-2,2-dimethylpropan-1-one followed by compound administration measured after 10 mins by automatic gamma counter analysis; assay type: ADME, organism-based; parameters: scale not given: the % may be the effect or the level left; settings: in vivo
[26] = Drug uptake in Sprague-Dawley rat brain assessed as reduction in radioactivity at 10 to 17.6 MBq, iv pretreated with GSK'547 followed by compound administration measured upto 30 mins by PET analysis; assay type: ADME, organism-based; parameters: scale not given: the % may be the effect or the level left; settings: in vivo, 0.5 h, dose 10-17.6 MBq
[27] = Drug uptake in cerebellum of ICR mouse brain at 0.5 to 10 uM incubated for 30 mins by Phosphor Imager analysis; assay type: ADME, tissue-based; settings: 0.5 h, dose 0.5-10 µM
[28] = Drug uptake in brain of TNF-alpha-induced SIRS Sprague-Dawley rat model at 9.9 to 14.8 MBq, iv measured for 5 mins by PET analysis; assay type: ADME, organism-based; settings: in vivo, dose 9.9-14.8 MBq
[29] = Biodistribution in ICR mouse small intestine at 0.74 MBq, iv measured after 10 mins by automatic gamma counter analysis; assay type: ADME, organism-based; settings: in vivo
[30] = Drug uptake in brain of Sprague-Dawley rat at 9.9 to 14.8 MBq, iv pretreated with 1-(5-(3-fluorophenyl)-4,5-dihydro-1H-pyrazol-1-yl)-2,2-dimethylpropan-1-one measured upto 20 mins by PET analysis; assay type: ADME, organism-based; settings: in vivo, dose 9.9-14.8 MBq
[31] = Biodistribution in ICR mouse assessed as drug accumulation in liver at 0.74 MBq, iv pretreated with GSK'547 followed by compound administration measured after 10 mins by automatic gamma counter analysis; assay type: ADME, organism-based; settings: in vivo
[32] = Biodistribution in ICR mouse liver at 0.74 MBq, iv measured after 30 mins by automatic gamma counter analysis; assay type: ADME, organism-based; settings: in vivo, 0.5 h
[33] = Biodistribution in ICR mouse muscle at 0.74 MBq, iv measured after 60 mins by automatic gamma counter analysis; assay type: ADME, organism-based, Muscle tissue; settings: in vivo, 1 h
[34] = Biodistribution in ICR mouse stomach at 0.74 MBq, iv measured after 10 mins by automatic gamma counter analysis; assay type: ADME, organism-based; settings: in vivo
[35] = Drug uptake in Sprague-Dawley rat bone at 10 to 17.6 MBq, iv treated upto 30 mins by PET analysis; assay type: ADME, organism-based, Bone element; settings: in vivo, 0.5 h, dose 10-17.6 MBq
[36] = Biodistribution in ICR mouse liver at 0.74 MBq, iv measured after 60 mins by automatic gamma counter analysis; assay type: ADME, organism-based; settings: in vivo, 1 h
[37] = Biodistribution in ICR mouse blood at 0.74 MBq, iv measured after 30 mins by automatic gamma counter analysis; assay type: ADME, organism-based; settings: in vivo, 0.5 h
[38] = Drug uptake in medulla of ICR mouse brain at 0.5 to 10 uM incubated for 30 mins by Phosphor Imager analysis; assay type: ADME, tissue-based, Medulla of organ; settings: 0.5 h, dose 0.5-10 µM
[39] = Biodistribution in ICR mouse liver at 0.74 MBq, iv measured after 2 mins by automatic gamma counter analysis; assay type: ADME, organism-based; settings: in vivo
[40] = Drug uptake in brain of TNF-alpha-induced SIRS Sprague-Dawley rat model assessed as decrease in radioactivity at 9.9 to 14.8 MBq, iv measured upto 20 mins by PET analysis; assay type: ADME, organism-based; parameters: scale not given: the % may be the effect or the level left; settings: in vivo, dose 9.9-14.8 MBq
[41] = Drug uptake in brain of Sprague-Dawley rat at 9.9 to 14.8 MBq, iv measured for 5 mins by PET analysis; assay type: ADME, organism-based; settings: in vivo, dose 9.9-14.8 MBq
[42] = Biodistribution in ICR mouse bone at 0.74 MBq, iv measured after 10 mins by automatic gamma counter analysis; assay type: ADME, organism-based, Bone element; settings: in vivo

CC(C)(C)C(=O)N1N=CCC1c1cccc([18F])c1 (configuration not stated)
Activity [1]: 13.3% | Drug uptake [2]: 16.41 % ID/g | Drug metabolism [3]: Metabolite_Detected | Drug uptake [4]: 4.79 % ID/g | Drug uptake [5]: 6.8 % ID/g | Drug uptake [6]: 22.56 % ID/g | Activity [7]: 11.9% | Drug uptake [8]: 5.07 % ID/g | remaining at 0.5 h [9]: 1.2% | Drug uptake [10]: 3.07 % ID/g | Drug uptake [11]: 3.17 % ID/g | Drug uptake [12]: 0.57 % ID/g | Retention_time [13]: 21.84 min | Drug uptake [14]: 1.36 % ID/g | Drug uptake [15]: 2.48 % ID/g | Drug uptake [16]: Active | Drug uptake [17]: 0.9 % ID/g | remaining at 0.5 h [18]: 22.4% | Drug uptake [19]: 3.7 % ID/g | Drug uptake [20]: 0.91 % ID/g | Drug uptake [21]: 10.39 % ID/g | Drug uptake [22]: 21% | Drug uptake [23]: 0.18 % ID/g | Drug uptake [24]: 12.1% | Activity [25]: 14.8% | Activity [26]: 25.9% | Drug uptake [27]: Active | Drug uptake [28]: Active | Drug uptake [29]: 12.64 % ID/g | Drug uptake [30]: 9.8% | Drug uptake [31]: 23.2% | Drug uptake [32]: 7.56 % ID/g | Drug uptake [33]: 0.47 % ID/g | Drug uptake [34]: 0.64 % ID/g | Drug uptake [35]: Not Active | Drug uptake [36]: 2.69 % ID/g | Drug uptake [37]: 2.96 % ID/g | Drug uptake [38]: Active | Drug uptake [39]: 10.83 % ID/g | Activity [40]: 9.1% | Drug uptake [41]: Active | Drug uptake [42]: 4.17 % ID/g
